Source: patent US10987349B2, “Antitumor agent and bromodomain inhibitor” (FUJIFILM Corporation, priority 2016, dated 2021)

Key:
[1] = target: T1, BRD3 BD2 (Homo sapiens, UniProt Q15059); test: Binding assay, BRD3 BD2 to acetylated histone H4 Peptide-Biotin (EPIgeneous Binding Domain Kit B); conditions: for inhibition at 0.3 µM: test compound at 300 nmol/L, read-out: Binding inhibition percentage BRD3 BD2
T1 construct: BRD2 BD2, BRD3 BD2 and BRD4 BD2 (Cisbio); purchased Cisbio
Procedure, shortened: (§1)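 HTRF binding of GST-tagged BD2 (20 nmol/L working stock) to biotinylated acetyl-histone H4 peptide (250 nmol/L working stock), using streptavidin-XL665 and anti-GST Eu cryptate. Incubated 20 h at room temperature; 665/620 nm ratio versus DMSO gives % inhibition; IC50 by four-parameter fit, or % inhibition at 300 nmol/L.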

[2] = target: T2, BRD4 BD1 (Homo sapiens, UniProt O60885); test: Binding assay, BRD4 BD1 to acetylated histone H4 Peptide-Biotin (EPIgeneous Binding Domain Kit A); conditions: for inhibition at 0.3 µM: test compound at 300 nmol/L, read-out: Binding inhibition percentage BRD4 BD1
T2 construct: BRD2 BD1, BRD3 BD1 and BRD4 BD1 (Cisbio); purchased Cisbio
Procedure, shortened: (§2)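 HTRF competition: bromodomain protein (added at 20 nmol/L) and biotinylated tetra-acetyl H4(1-25) peptide (added at 25 nmol/L) were incubated with compound, streptavidin-d2 and anti-GST Eu cryptate for 20 h at room temperature. Inhibition came from the 665/620 nm ratio relative to DMSO; IC50 by four-parameter fit; some compounds were tested only at 300 nmol/L final.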

[3] = test system: human lung adenocarcinoma cell line A549; test: Cell growth test (Cell Titer Glo) A549; format: cell-based; conditions: 3 to 5 days
Description: (§3) The human undifferentiated thymoma cell line Ty-82 (JCRB), the human acute myeloid leukemia cell lines MV4-11 (ATCC), MOLM-13 (ATCC) and RS4-11 (ATCC), the human lymphoma cell line Raji (JCRB), the human cervical epidermoid carcinoma cell line Hela (JCRB), the human lung adenocarcinoma cell line A549 (ATCC), the human colon cancer cell lines DLD1 (DS Pharma) and HCT116 (DS Pharma), and the human pancreatic cancer cell line MIAPACA-2 (ATCC) were used to carry out a cell growth test.
(§4) Ty-82, MV4-11, MOLM-13, RS4-11, Raji and DLD1 were each seeded in a well plate, in which Roswell Park Memorial Institute (RPMI)-1640 medium supplemented with penicillin/streptomycin and fetal bovine serum (FBS) with a final concentration of 10% was placed. Hela was seeded in Dulbecco's Modified Eagle's medium (DMEM) supplemented with penicillin/streptomycin and FBS with a final concentration of 10%. A549 and MIAPACA-2 were each seeded in a well plate, in which Minimum Essential Medium (MEM) supplemented with penicillin/streptomycin and FBS with a final concentration of 10% was placed. […]
(§5) Thereafter, a medium containing a test compound serially diluted with DMSO, or DMSO, was added to each well of the plate, in which the cells had been seeded, and the obtained mixture was then cultured under conditions of 37° C. and 5% CO2 for 3 to 5 days. Cell Titer Glo reaction solution (Promega) was added to the culture, and the amount of luminescence was then measured using Envision plate reader (PerkinElmer). Since the amount of luminescence is in proportion to the concentration of adenosine triphosphate (ATP) in cells, the amount of luminescence was used as an indicator of the number of living cells. The growth inhibition percentage of the test compound in each concentration was calculated according to the following equation. Growth inhibition percentage (%)=(amount of luminescence in test compound−added well)/(amount of luminescence in DMSO−added well)×100 […]

[4] = test system: human lymphoma cell line Raji; test: Cell growth test (Cell Titer Glo) Raji; format: cell-based; conditions: 3 to 5 days
Description: as §3, §4, §5

[5] = target: T3, BRD2 BD1 (Homo sapiens, UniProt P25440); test: Binding assay, BRD2 BD1 to acetylated histone H4 Peptide-Biotin (EPIgeneous Binding Domain Kit A); conditions: for inhibition at 0.3 µM: test compound at 300 nmol/L, read-out: Binding inhibition percentage BRD2 BD1
T3 construct: BRD2 BD1, BRD3 BD1 and BRD4 BD1 (Cisbio); purchased Cisbio
Procedure, shortened: as §2

[6] = target: T4, BRD4 BD2 (Homo sapiens, UniProt O60885); test: Binding assay, BRD4 BD2 to acetylated histone H4 Peptide-Biotin (EPIgeneous Binding Domain Kit B); conditions: for inhibition at 0.3 µM: test compound at 300 nmol/L, read-out: Binding inhibition percentage BRD4 BD2
T4 construct: BRD2 BD2, BRD3 BD2 and BRD4 BD2 (Cisbio); purchased Cisbio
Procedure, shortened: as §1

[7] = test system: human pancreatic cancer cell line MIAPACA-2; test: Cell growth test (Cell Titer Glo) MIAPACA-2; format: cell-based; conditions: MIA PaCa-2, MIAPACA-2, Pancreatic cancer, 3 to 5 days
Description: as §3, §4, §5

[8] = test system: human acute myeloid leukemia cell line MV4-11; test: Cell growth test (Cell Titer Glo) MV4-11; format: cell-based; conditions: 3 to 5 days
Description: as §3
Ty-82, MV4-11, MOLM-13, RS4-11, Raji and DLD1 were each seeded in a well plate, in which Roswell Park Memorial Institute (RPMI)-1640 medium supplemented with penicillin/streptomycin and fetal bovine serum (FBS) with a final concentration of 10% was placed. Hela was seeded in Dulbecco's Modified Eagle's medium (DMEM) supplemented with penicillin/streptomycin and FBS with a final concentration of 10%. A549 and MIAPACA-2 were each seeded in a well plate, in which Minimum Essential Medium (MEM) supplemented with penicillin/streptomycin and FBS with a final concentration of 10% was placed. HCT116 was seeded in a well plate, in which McCoy's 5A medium supplemented with penicillin/streptomycin and FBS with a final concentration of 10% was placed.
Thereafter, a medium containing a test compound serially diluted with DMSO, or DMSO, was added to each well of the plate, in which the cells had been seeded, and the obtained mixture was then cultured under conditions of 37° C. and 5% CO2 for 3 to 5 days. Cell Titer Glo reaction solution (Promega) was added to the culture, and the amount of luminescence was then measured using Envision plate reader (PerkinElmer). Since the amount of luminescence is in proportion to the concentration of adenosine triphosphate (ATP) in cells, the amount of luminescence was used as an indicator of the number of living cells. The growth inhibition percentage of the test compound in each concentration was calculated according to the following equation. Growth inhibition percentage (%)=(amount of luminescence in test compound−added well)/(amount of luminescence in DMSO−added well)×100
The growth inhibition percentage of the test compound in each concentration was plotted by performing a non-linear regression analysis [(log (inhibitor) vs. response—Variable slope (four parameters)], using Graphpad prism 5, and a 50% growth inhibitory concentration [GI50 (nmol/L)] was then calculated.

[9] = test system: human colon cancer cell line HCT116; test: Cell growth test (Cell Titer Glo) HCT116; format: cell-based; conditions: HCT-116, 3 to 5 days
Description: as §3, §4, §5

T1 sequence (Q15059 306-415 limits assumed): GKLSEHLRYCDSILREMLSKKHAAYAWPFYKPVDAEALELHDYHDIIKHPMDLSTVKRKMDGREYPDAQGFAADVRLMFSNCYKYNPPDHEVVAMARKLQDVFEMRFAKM
T3 sequence (P25440 74-180 limits assumed): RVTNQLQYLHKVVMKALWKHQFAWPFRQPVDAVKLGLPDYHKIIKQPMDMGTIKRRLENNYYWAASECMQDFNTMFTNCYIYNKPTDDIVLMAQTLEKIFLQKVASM

| IC50 [1] | inhibition at 0.3 µM [1] | IC50 [2] | inhibition at 0.3 µM [2] | GI50 [3] | GI50 [4] | IC50 [5] | inhibition at 0.3 µM [5] | IC50 [6] | inhibition at 0.3 µM [6] | GI50 [7] | GI50 [8] | GI50 [9] | SMILES |
| --- | --- | --- | --- | --- | --- | --- | --- | --- | --- | --- | --- | --- | --- |
| 70 nM | 83% | 5 nM | 93% | 665 nM | 60 nM | 9 nM | 93% | 27 nM | 82% | 1420 nM | 16 nM | 241 nM | CCn1c(=O)cc(C2CCN(C)CC2)c2cc(C(=O)N(C)c3ccc(C)cc3)ccc21 [Example 14, 1-Ethyl-N-methyl-N-(4-methylphenyl)-4-(1-methylpiperidin-4-yl)-2-oxo-1,2-dihydroquinoline-6-carboxamide] |
| 14 nM | 91% | 3 nM | 94% | 292 nM | 23 nM | 5 nM | 93% | 10 nM | 88% | 307 nM | 8 nM | 116 nM | CCn1c(=O)cc(C2CCN(C)CC2)c2cc(C(=O)N(C)c3ccc4c(c3)CCC4)ccc21 [Example 17, N-(2,3-dihydro-1H-inden-5-yl)-1-ethyl-N-methyl-4-(1-methylpiperidin-4-yl)-2-oxo-1,2-dihydroquinoline-6-carboxamide] |
| 4 nM | 92% | 20 nM | 91% | 1740 nM | 97 nM | 61 nM | 79% | 3 nM | 88% | 760 nM | 15 nM | 628 nM | CCn1c(=O)cc(N2CCOCC2)c2cc(-n3c(-c4ccc(Cl)cc4)c[nH]c3=O)ccc21 [Example 245, 6-(5-(4-chlorophenyl)-2-oxo-2,3-dihydro-1H-imidazol-1-yl)-1-ethyl-4-(morpholin-4-yl)quinolin-2(1H)-one] |
